# Source: US20240101531A1, “PYRIDINAMINE DERIVATIVES AND THEIR USE AS POTASSIUM CHANNEL MODULATORS” (Xenon Pharmaceuticals Inc., priority 2022, published 2024)
# Biological target: human KV7.2/KV7.3 (Homo sapiens (Human), UniProt O43525+O43526)
# Experiment: Potassium flux assay (IPG-2 AM dye)
# Assay type: cell-based
# Settings: TREX HEK 293 or HEK 293 cells expressing human KV7.2/KV7.3; arithmetic mean values
# From the text: This potassium flux assay employs the cell-permeable, potassium-sensitive dye, IPG-2 AM, to quantify potassium ion flux through potassium channels.
# In general, TREX HEK 293 or HEK 293 cells were stably transfected with either an inducible or non-inducible expression vector containing the full-length cDNA coding for the desired human KV7.2/KV7.3 or in combination with another full-length cDNA for a second desired human KV7 potassium channel. Potassium channel-expressing cell lines were induced with tetracycline (1 μg/mL), if required, and plated on 384-well poly-D-lysine (PDL)-coated plates in culture media (DMEM, containing 10% FBS and 1% L-glutamine). After overnight incubation, culture media was removed and cells were loaded with 5 μM IPG-2 AM dye for 1 hour in Assay buffer (140 mM NaCl, 20 mM RbCl, 2 mM CaCl2, 1 mM MgCl2, 10 mM HEPES (4-(2-hydroxyethyl)-1-piperazineethanesulfonic acid buffer), 10 mM glucose, adjusted with Tris to pH 7.4). Excess dye was removed, and cells incubated at room temperature for 20 minutes with or without test compound. A Hamamatsu FDSS μCell was used to perform a 1:1 addition of K challenge buffer (150 mM NaCl, 10 mM HEPES, 2 mM CaCl2, 10 mM KCl, 1 mM MgCl2, 10 mM glucose, adjusted with Tris to pH 7.4 for human KV7.2/KV7.3, and simultaneously read plates at excitation wavelength of 530 nm and emission wavelength of 558 nm. Non-potassium channel-mediated potassium influx was determined in the presence of DMSO, and maximal influx was determined in the presence of a known KV7.x channel modulator. For each test compound, a concentration response curve was generated with 16 concentrations points, 2-fold serial dilution starting at 30 μM and an EC50 value was determined.
row,Structure (SMILES),EC50
1,"O[C@@H]1COC[C@@H]1Oc1ccc2c(Nc3ccc(Cl)nc3)nccc2c1 (racemic) [Example 79, rac-(3R,4S)-4-((1-((6-chloropyridin-3-yl)amino)isoquinolin-6-yl)oxy)tetrahydrofuran-3-ol]",1000 to 10000 nM
2,"O[C@@H]1CCC[C@H](Oc2ccc3c(Nc4ccc(Cl)nc4)nccc3c2)C1 (racemic) [Example 95, rac-(1R,3S)-3-((1-((6-chloropyridin-3-yl)amino)isoquinolin-6-yl)oxy)cyclohexan-1-ol]",< 1000 nM
3,"O[C@H]1CC[C@@H](Oc2ccc3c(Nc4ccc(Cl)nc4)nccc3c2)C1 (racemic) [Example 102, rac-(1S,3R)-3-((1-((6-chloropyridin-3-yl)amino)isoquinolin-6-yl)oxy)cyclopentan-1-ol]",< 1000 nM
4,"O[C@@H]1CC[C@@H](Oc2ccc3c(Nc4ccc(Cl)nc4)nccc3c2)C1 (racemic) [Example 103, rac-(1R,3R)-3-((1-((6-chloropyridin-3-yl)amino)isoquinolin-6-yl)oxy)cyclopentan-1-ol]",< 1000 nM
5,"N#CC1(COc2ccc3c(Nc4ccc(Cl)nc4)nccc3c2)CCOC1 (racemic) [Example 124, 3-(((1-((6-chloropyridin-3-yl)amino)isoquinolin-6-yl)oxy)methyl)tetrahydrofuran-3-carbonitrile]",< 1000 nM
6,"O[C@]1(C(F)(F)F)CCC[C@H](Oc2ccc3c(Nc4cnc(Cl)nc4)nccc3c2)C1 (racemic) [Example 145, rac-(1R,3S)-3-((1-((2-chloropyrimidin-5-yl)amino)isoquinolin-6-yl)oxy)-1-(trifluoromethyl)cyclohexan-1-ol]",< 1000 nM
7,"CC(Oc1ccc2c(Nc3ccc(Cl)nc3)nccc2c1)c1cnn(C)c1 (racemic) [Example 170, N-(6-chloropyridin-3-yl)-6-(1-(1-methyl-1H-pyrazol-4-yl)ethoxy)isoquinolin-1-amine]",< 1000 nM
8,"Cc1nn(C)cc1C(C)Oc1ccc2c(Nc3ccc(Cl)nc3)nccc2c1 (racemic) [Example 173, N-(6-chloropyridin-3-yl)-6-(1-(1,3-dimethyl-1H-pyrazol-4-yl)ethoxy)isoquinolin-1-amine]",1000 to 10000 nM
9,"CO[C@@H]1CCC[C@H](Oc2ccc3c(Nc4cnc(Cl)nc4)nccc3c2)C1 (racemic) [Example 360, cis-N-(2-chloropyrimidin-5-yl)-6-(((1S,3R)-3-methoxycyclohexyl)oxy)isoquinolin-1-amine]",< 1000 nM
10,"O[C@@H]1CCCC[C@@H]1Oc1ccc2c(Nc3ccc(Cl)nc3)nccc2c1 (relative stereo) [Example 142, cis-2-((1-((6-chloropyridin-3-yl)amino)isoquinolin-6-yl)oxy)cyclohexan-1-ol]",< 1000 nM
11,"O[C@@H]1CCCC[C@H]1Oc1ccc2c(Nc3ccc(Cl)nc3)nccc2c1 (relative stereo) [Example 143, trans-2-((1-((6-chloropyridin-3-yl)amino)isoquinolin-6-yl)oxy)cyclohexan-1-ol]",< 1000 nM
12,"O[C@@H]1CCC[C@H](Oc2ccc3c(Nc4cnc(Cl)nc4)nccc3c2)C1 (relative stereo) [Example 348, cis-3-((1-((2-chloropyrimidin-5-yl)amino)isoquinolin-6-yl)oxy)cyclohexan-1-ol]",< 1000 nM
13,"O[C@@H]1CCC[C@@H](Oc2ccc3c(Nc4ccc(Cl)nc4)nccc3c2)C1 (relative stereo) [Example 354, trans-3-((1-((6-chloropyridin-3-yl)amino)isoquinolin-6-yl)oxy)cyclohexan-1-ol]",< 1000 nM
14,"N=[S@]1(=O)CCC[C@@H](COc2ccc3c(Nc4cnc(Cl)nc4)nccc3c2)C1 (relative stereo) [Example 366, cis-3-(((1-((2-chloropyrimidin-5-yl)amino)isoquinolin-6-yl)oxy)methyl)-1-iminohexahydro-1λ^6-thiopyran 1-oxide]",1000 to 10000 nM
15,"N=[S@@]1(=O)CCC[C@@H](COc2ccc3c(Nc4cnc(Cl)nc4)nccc3c2)C1 (relative stereo) [Example 367, trans-3-(((1-((2-chloropyrimidin-5-yl)amino)isoquinolin-6-yl)oxy)methyl)-1-iminohexahydro-1λ^6-thiopyran 1-oxide]",< 1000 nM
16,"N#CC1(COc2ccc3c(Nc4ccc(Cl)nc4)nccc3c2)CCOC1 (stereo in doubt) [Example 125, (R)-3-(((1-((6-chloropyridin-3-yl)amino)isoquinolin-6-yl)oxy)methyl)tetrahydrofuran-3-carbonitrile]",< 1000 nM
17,"N#CC1(COc2ccc3c(Nc4ccc(Cl)nc4)nccc3c2)CCOC1 (stereo in doubt) [Example 126, (S)-3-(((1-((6-chloropyridin-3-yl)amino)isoquinolin-6-yl)oxy)methyl)tetrahydrofuran-3-carbonitrile]",< 1000 nM
18,"CS(=O)(=Nc1ccc2c(Nc3ccc(Cl)nc3)nccc2c1)C1CC1 (stereo in doubt) [Example 273, (R)-((1-((6-chloropyridin-3-yl)amino)isoquinolin-6-yl)imino)(cyclopropyl)(methyl)-λ^6-sulfanone]",1000 to 10000 nM
19,"CS(=O)(=Nc1ccc2c(Nc3ccc(Cl)nc3)nccc2c1)C1CC1 (stereo in doubt) [Example 274, (S)-((1-((6-chloropyridin-3-yl)amino)isoquinolin-6-yl)imino)(cyclopropyl)(methyl)-λ^6-sulfanone]",< 1000 nM
20,"CS(=O)(=Nc1ccc2c(Nc3ccc(Cl)nc3)nccc2c1)C1COC1 (stereo in doubt) [Example 276, (S)-((1-((6-chloropyridin-3-yl)amino)isoquinolin-6-yl)imino)(methyl)(oxetan-3-yl)-λ^6-sulfanone)]",1000 to 10000 nM
21,"CS(=O)(=Nc1ccc2c(Nc3ccc(Cl)nc3)nccc2c1)C1COC1 (stereo in doubt) [Example 277, (R)-((1-((6-chloropyridin-3-yl)amino)isoquinolin-6-yl)imino)(methyl)(oxetan-3-yl)-λ^6-sulfanone)]",1000 to 10000 nM
22,"FC1(COc2ccc3c(Nc4ccc(Cl)nc4)nccc3c2)CCOC1 (stereo in doubt) [Example 364, (R)—N-(6-chloropyridin-3-yl)-6-((3-fluorotetrahydrofuran-3-yl)methoxy)isoquinolin-1-amine]",< 1000 nM
23,"FC1(COc2ccc3c(Nc4ccc(Cl)nc4)nccc3c2)CCOC1 (stereo in doubt) [Example 365, (S)—N-(6-chloropyridin-3-yl)-6-((3-fluorotetrahydrofuran-3-yl)methoxy)isoquinolin-1-amine]",< 1000 nM
24,"CC(C)Oc1ccc2c(Nc3ccc(Cl)nc3)nccc2c1 [Example 1, N-(6-chloropyridin-3-yl)-6-isopropoxyisoquinolin-1-amine]",1000 to 10000 nM
25,"Clc1ccc(Nc2nccc3cc(OCC4CC4)ccc23)cn1 [Example 2, N-(6-chloropyridin-3-yl)-6-(cyclopropylmethoxy)isoquinolin-1-amine]",< 1000 nM
26,"CCCOc1ccc2c(Nc3ccc(Cl)nc3)nccc2c1 [Example 3, N-(6-chloropyridin-3-yl)-6-propoxyisoquinolin-1-amine]",1000 to 10000 nM
27,"COCCOc1ccc2c(Nc3ccc(Cl)nc3)nccc2c1 [Example 4, N-(6-chloropyridin-3-yl)-6-(2-methoxyethoxy)isoquinolin-1-amine]",1000 to 10000 nM
28,"Clc1ccc(Nc2nccc3cc(OCc4ccccn4)ccc23)cn1 [Example 5, N-(6-chloropyridin-3-yl)-6-(pyridin-2-ylmethoxy)isoquinolin-1-amine]",1000 to 10000 nM
